Among the data in BindingDB's records for doi:10.1021/acs.jmedchem.7b01322 (National Health Research Institutes, 2018) are EC50 values, retold here.

A short description of this test: Antagonist activity at CXCR4 in human CCRF-CEM cells assessed as inhibition of CXCL12-induced CXCR4+ cell migration pre-incubated for 10 mins before CXCL12 addition and measured after 2.5 hrs by flow cytometric analysis. On the technique in general: Flow cytometry measures light scatter and fluorescence of single cells or particles in a stream.

One may read the EC50 as the midpoint of the concentration-response curve. On to `Cc1cc(NC2CCN(C(=O)CCNCC(=O)O)CC2)nc(NCc2cn(CCCNCCCNC3CCCCC3)nn2)n1`, for which the EC50 was determined as 14 nM.
